Several values for one entry are separate records, joined by “and”; a condition that tells them apart may be missing. Equal values may be shown once.
Legend:
[1] = target: T1, Alpha1D (Homo sapiens, UniProt P25100); assay: PDSP radioligand binding assay; conditions: read-out: RLBA Ki
T1 construct: NIMH Psychoactive Drug Screening Program (assay performed there)
Text: (§1) Receptor RLBA Ki Receptor activity
(§2) Suppl ementary Tabl e 1. Speci fi ci ty of STL1267. […]

[2] = target: T2, Alpha2C (Homo sapiens, UniProt P18825); assay: PDSP radioligand binding assay; conditions: read-out: RLBA Ki
T2 construct: NIMH Psychoactive Drug Screening Program (assay performed there)
Text: as §1, §2

[3] = target: D4 (Homo sapiens, UniProt P21917); assay: PDSP radioligand binding assay; conditions: read-out: RLBA Ki
Text: as §1, §2

[4] = target: H4 (Homo sapiens, UniProt Q9H3N8); assay: PDSP radioligand binding assay; conditions: read-out: RLBA Ki
Text: as §1, §2

[5] = target: BZP Rat Brain Site; assay: PDSP radioligand binding assay; conditions: read-out: RLBA Ki
Text: as §1, §2

[6] = target: PBR (Rattus norvegicus, UniProt P16257); assay: PDSP radioligand binding assay; conditions: read-out: RLBA Ki
Text: as §1, §2

[7] = target: T3, 5-HT3 (Homo sapiens, UniProt P46098); assay: PDSP radioligand binding assay; conditions: read-out: RLBA Ki
T3 construct: NIMH Psychoactive Drug Screening Program (assay performed there)
Text: as §1, §2

[8] = target: M5 (Homo sapiens, UniProt P08912); assay: PDSP radioligand binding assay; conditions: read-out: RLBA Ki
Text: as §1, §2

[9] = target: D1 (Homo sapiens, UniProt P21728); assay: PDSP radioligand binding assay; conditions: read-out: RLBA Ki
Text: as §1, §2

[10] = target: D5 (Homo sapiens, UniProt P21918); assay: PDSP radioligand binding assay; conditions: read-out: RLBA Ki
Text: as §1, §2

[11] = target: T4, 5-HT1D (Homo sapiens, UniProt P28221); assay: PDSP radioligand binding assay; conditions: read-out: RLBA Ki
T4 construct: NIMH Psychoactive Drug Screening Program (assay performed there)
Text: as §1, §2

[12] = target: GABAA; assay: PDSP radioligand binding assay; conditions: read-out: RLBA Ki
Text: as §1, §2

[13] = target: H2 (Homo sapiens, UniProt P25021); assay: PDSP radioligand binding assay; conditions: read-out: RLBA Ki
Text: as §1, §2

[14] = target: T5, Beta1 (Homo sapiens, UniProt P08588); assay: PDSP radioligand binding assay; conditions: read-out: RLBA Ki
T5 construct: NIMH Psychoactive Drug Screening Program (assay performed there)
Text: as §1, §2

[15] = target: NET (Homo sapiens, UniProt P23975); assay: PDSP radioligand binding assay; conditions: read-out: RLBA Ki
Text: as §1, §2

[16] = target: T6, Alpha1A (Homo sapiens, UniProt P35348); assay: PDSP radioligand binding assay; conditions: read-out: RLBA Ki
T6 construct: NIMH Psychoactive Drug Screening Program (assay performed there)
Text: as §1, §2

[17] = target: T7, Alpha2B (Homo sapiens, UniProt P18089); assay: PDSP radioligand binding assay; conditions: read-out: RLBA Ki
T7 construct: NIMH Psychoactive Drug Screening Program (assay performed there)
Text: as §1, §2

[18] = target: M2 (Homo sapiens, UniProt P08172); assay: PDSP radioligand binding assay; conditions: read-out: RLBA Ki
Text: as §1, §2

[19] = target: T8, 5-HT7A (Homo sapiens, UniProt P34969); assay: PDSP radioligand binding assay; conditions: read-out: RLBA Ki
T8 construct: NIMH Psychoactive Drug Screening Program (assay performed there)
Text: as §1, §2

[20] = target: T9, 5-HT2B (Homo sapiens, UniProt P41595); assay: PDSP radioligand binding assay; conditions: read-out: RLBA Ki
T9 construct: NIMH Psychoactive Drug Screening Program (assay performed there)
Text: as §1, §2

[21] = target: Beta2 (Homo sapiens, UniProt P07550); assay: PDSP radioligand binding assay; conditions: read-out: RLBA Ki
Text: as §1, §2

[22] = target: T10, 5-HT1B (Homo sapiens, UniProt P28222); assay: PDSP radioligand binding assay; conditions: read-out: RLBA Ki
T10 construct: NIMH Psychoactive Drug Screening Program (assay performed there)
Text: as §1, §2

[23] = target: T11, 5-HT1A (Homo sapiens, UniProt P08908); assay: PDSP radioligand binding assay; conditions: read-out: RLBA Ki
T11 construct: NIMH Psychoactive Drug Screening Program (assay performed there)
Text: as §1, §2

[24] = target: H1 (Homo sapiens, UniProt P35367); assay: PDSP radioligand binding assay; conditions: read-out: RLBA Ki
Text: as §1, §2

[25] = target: M4 (Homo sapiens, UniProt P08173); assay: PDSP radioligand binding assay; conditions: read-out: RLBA Ki
Text: as §1, §2

[26] = target: MOR (Homo sapiens, UniProt P35372); assay: PDSP radioligand binding assay; conditions: read-out: RLBA Ki
Text: as §1, §2

[27] = target: M3 (Homo sapiens, UniProt P20309); assay: PDSP radioligand binding assay; conditions: read-out: RLBA Ki
Text: as §1, §2

[28] = target: DOR (Homo sapiens, UniProt P41143); assay: PDSP radioligand binding assay; conditions: read-out: RLBA Ki
Text: as §1, §2

[29] = target: T12, 5-HT1E (Homo sapiens, UniProt P28566); assay: PDSP radioligand binding assay; conditions: read-out: RLBA Ki
T12 construct: NIMH Psychoactive Drug Screening Program (assay performed there)
Text: as §1, §2

[30] = target: D3 (Homo sapiens, UniProt P35462); assay: PDSP radioligand binding assay; conditions: read-out: RLBA Ki
Text: as §1, §2

[31] = target: T13, 5-HT5A (Homo sapiens, UniProt P47898); assay: PDSP radioligand binding assay; conditions: read-out: RLBA Ki
T13 construct: NIMH Psychoactive Drug Screening Program (assay performed there)
Text: as §1, §2

[32] = target: M1 (Homo sapiens, UniProt P11229); assay: PDSP radioligand binding assay; conditions: read-out: RLBA Ki
Text: as §1, §2

[33] = test system: HepG2 cells; assay: cell viability by crystal violet staining; type: cell-based, human; conditions: for cell viability (Fig 2a source data): crystal violet, normalized to DMSO, single replicates
Description: Cellular viability was tested in two cell types, human hepatocarcinoma HepG2 cells and proliferating C2C12 mouse myoblast cells.
Data are presented as mean ± SEM. Source data are available as a Source Data file.
The human hepatocellular carcinoma cell line, HepG2 cells (ATCC HB-8065), were cultured in 10% FBS 1% L-Glu MEM at 37 °C in a humidified atmosphere of 5% CO2. Prior to RNA extraction cells were treated with either DMSO or REV-ERB agonist for 24 h. The C2C12 proliferating mouse myoblast cells (ATCC, CRL-1772) were cultured in 10% FBS DMEM at 37 °C in a humidified atmosphere of 5% CO2. Prior to RNA extraction cells were treated with either DMSO or REV-ERB agonist for 24 h. […]
[…] Media was removed, and cells were incubated with 0.5% crystal violet solution for 20 min at room temperature with mild agitation. Cells were washed four times with tap water before being air drying overnight. Cells were incubated in methanol for 20 min with mild agitation. Absorbance was read at 570 nm, and readings were normalized to vehicle (DMSO) treated cells.

[34] = test system: REV-ERBα; set-up: method as in ref 21 = [21]; 21. Bourotte, et al. Derivatives of 6-substituted triazolopyridazines as Rev-Erb agonists. (ed. States, U.) (United States, 2012).; conditions: enhancement of REV-ERBα/NCoR interaction, biochemical or cell-based assays; cited from earlier work

T7 sequence (P18089 whole entry): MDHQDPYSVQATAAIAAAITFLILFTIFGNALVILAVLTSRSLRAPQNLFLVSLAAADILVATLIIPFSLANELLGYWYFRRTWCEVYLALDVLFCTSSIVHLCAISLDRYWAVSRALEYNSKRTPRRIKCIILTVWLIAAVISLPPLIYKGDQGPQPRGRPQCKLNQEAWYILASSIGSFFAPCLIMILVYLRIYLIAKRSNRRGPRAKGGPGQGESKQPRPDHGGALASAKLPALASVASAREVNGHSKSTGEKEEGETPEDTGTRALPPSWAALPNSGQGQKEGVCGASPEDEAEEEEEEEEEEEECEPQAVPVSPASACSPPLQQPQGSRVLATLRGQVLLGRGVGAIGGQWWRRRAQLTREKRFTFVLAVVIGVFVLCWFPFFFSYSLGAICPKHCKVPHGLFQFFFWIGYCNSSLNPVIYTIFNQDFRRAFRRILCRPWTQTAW
T9 sequence (P41595 whole entry, species assumed): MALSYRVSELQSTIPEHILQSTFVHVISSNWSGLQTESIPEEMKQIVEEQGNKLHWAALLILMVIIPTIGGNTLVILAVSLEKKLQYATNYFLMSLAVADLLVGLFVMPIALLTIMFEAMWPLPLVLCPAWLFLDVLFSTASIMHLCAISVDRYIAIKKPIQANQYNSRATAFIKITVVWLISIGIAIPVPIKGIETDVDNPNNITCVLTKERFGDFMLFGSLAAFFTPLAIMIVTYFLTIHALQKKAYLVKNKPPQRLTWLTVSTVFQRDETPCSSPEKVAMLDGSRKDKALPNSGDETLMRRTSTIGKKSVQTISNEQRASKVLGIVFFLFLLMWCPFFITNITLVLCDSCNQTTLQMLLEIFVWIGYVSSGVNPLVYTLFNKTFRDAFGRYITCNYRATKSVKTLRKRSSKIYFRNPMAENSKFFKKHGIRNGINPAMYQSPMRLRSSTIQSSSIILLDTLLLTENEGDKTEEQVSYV
Chain of D1 (P21728 whole entry): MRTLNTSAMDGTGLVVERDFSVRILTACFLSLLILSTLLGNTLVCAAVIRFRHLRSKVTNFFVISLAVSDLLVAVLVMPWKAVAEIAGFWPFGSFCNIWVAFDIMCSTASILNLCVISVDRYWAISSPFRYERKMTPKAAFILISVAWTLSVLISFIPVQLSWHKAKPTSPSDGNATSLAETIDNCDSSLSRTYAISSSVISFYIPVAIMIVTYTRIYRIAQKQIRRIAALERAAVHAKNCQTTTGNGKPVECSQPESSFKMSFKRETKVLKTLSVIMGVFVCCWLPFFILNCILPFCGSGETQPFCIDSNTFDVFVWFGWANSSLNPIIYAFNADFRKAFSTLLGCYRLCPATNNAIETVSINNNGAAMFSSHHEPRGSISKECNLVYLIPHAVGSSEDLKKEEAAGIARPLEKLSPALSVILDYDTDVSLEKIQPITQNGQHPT
Chain of H2 (P25021 whole entry): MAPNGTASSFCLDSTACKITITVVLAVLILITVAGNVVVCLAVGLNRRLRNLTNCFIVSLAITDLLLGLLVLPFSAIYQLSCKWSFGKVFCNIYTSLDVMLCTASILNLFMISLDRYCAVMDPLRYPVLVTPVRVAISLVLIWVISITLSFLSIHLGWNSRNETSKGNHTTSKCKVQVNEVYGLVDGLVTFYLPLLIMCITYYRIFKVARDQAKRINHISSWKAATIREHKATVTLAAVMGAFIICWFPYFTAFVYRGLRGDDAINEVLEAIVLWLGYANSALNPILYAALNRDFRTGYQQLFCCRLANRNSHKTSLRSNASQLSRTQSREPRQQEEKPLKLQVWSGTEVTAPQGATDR
Chain of M1 (P11229 whole entry): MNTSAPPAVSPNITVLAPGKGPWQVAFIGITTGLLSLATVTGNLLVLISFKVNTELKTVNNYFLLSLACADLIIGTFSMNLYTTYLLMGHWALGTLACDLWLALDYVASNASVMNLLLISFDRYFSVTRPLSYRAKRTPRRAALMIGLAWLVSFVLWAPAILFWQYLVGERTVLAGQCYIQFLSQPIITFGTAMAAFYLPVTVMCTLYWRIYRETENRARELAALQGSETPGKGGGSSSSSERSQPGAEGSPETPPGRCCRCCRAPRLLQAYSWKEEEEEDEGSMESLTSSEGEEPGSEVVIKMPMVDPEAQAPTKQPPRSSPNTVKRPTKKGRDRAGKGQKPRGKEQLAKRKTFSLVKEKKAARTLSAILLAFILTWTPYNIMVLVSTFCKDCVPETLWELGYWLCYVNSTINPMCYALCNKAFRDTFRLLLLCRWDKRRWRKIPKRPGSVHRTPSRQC
T13 sequence (P47898 whole entry, species assumed): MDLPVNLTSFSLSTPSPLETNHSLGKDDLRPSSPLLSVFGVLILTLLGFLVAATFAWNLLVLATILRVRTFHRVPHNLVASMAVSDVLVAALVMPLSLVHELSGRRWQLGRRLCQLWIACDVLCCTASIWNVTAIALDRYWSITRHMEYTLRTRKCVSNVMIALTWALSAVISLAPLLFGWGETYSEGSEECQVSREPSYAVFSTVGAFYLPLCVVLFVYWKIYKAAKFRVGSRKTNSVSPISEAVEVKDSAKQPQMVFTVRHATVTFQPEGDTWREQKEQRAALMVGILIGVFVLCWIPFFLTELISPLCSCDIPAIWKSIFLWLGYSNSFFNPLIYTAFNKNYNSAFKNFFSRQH
Chain of H1 (P35367 whole entry): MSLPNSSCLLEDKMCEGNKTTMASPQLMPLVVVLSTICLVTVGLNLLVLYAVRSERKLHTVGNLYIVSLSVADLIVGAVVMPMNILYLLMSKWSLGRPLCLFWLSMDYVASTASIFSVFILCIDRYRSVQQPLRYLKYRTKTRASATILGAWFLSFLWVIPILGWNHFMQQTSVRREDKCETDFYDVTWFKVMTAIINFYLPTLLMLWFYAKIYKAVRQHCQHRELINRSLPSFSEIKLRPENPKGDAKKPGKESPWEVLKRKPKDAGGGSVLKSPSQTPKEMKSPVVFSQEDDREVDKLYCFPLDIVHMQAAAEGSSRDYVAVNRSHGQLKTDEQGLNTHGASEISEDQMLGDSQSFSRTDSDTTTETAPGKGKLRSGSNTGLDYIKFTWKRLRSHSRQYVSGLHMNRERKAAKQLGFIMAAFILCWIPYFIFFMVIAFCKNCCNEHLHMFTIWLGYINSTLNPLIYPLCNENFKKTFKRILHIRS
Chain of M2 (P08172 whole entry): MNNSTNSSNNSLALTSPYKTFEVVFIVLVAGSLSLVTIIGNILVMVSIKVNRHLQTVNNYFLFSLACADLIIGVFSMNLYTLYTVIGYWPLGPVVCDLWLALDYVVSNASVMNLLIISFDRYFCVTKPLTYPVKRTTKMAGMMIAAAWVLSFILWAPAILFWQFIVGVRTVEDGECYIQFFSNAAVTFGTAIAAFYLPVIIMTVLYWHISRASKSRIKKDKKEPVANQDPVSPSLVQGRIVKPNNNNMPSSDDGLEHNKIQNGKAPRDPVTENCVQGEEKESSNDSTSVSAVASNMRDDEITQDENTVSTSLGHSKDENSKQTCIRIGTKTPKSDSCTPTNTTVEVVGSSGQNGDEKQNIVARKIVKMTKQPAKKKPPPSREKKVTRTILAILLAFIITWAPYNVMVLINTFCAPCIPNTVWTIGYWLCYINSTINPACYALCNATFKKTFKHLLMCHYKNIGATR
T4 sequence (P28221 whole entry, species assumed): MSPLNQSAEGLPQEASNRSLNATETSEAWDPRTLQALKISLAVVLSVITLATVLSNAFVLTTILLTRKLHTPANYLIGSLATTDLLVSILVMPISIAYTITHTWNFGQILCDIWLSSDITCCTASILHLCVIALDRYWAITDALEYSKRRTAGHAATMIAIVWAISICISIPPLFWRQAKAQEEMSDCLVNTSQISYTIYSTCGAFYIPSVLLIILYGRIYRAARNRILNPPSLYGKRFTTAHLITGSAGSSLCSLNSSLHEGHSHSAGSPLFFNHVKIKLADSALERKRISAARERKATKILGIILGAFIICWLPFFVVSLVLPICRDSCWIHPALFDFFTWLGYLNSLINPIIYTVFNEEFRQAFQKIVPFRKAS
T1 sequence (P25100 whole entry): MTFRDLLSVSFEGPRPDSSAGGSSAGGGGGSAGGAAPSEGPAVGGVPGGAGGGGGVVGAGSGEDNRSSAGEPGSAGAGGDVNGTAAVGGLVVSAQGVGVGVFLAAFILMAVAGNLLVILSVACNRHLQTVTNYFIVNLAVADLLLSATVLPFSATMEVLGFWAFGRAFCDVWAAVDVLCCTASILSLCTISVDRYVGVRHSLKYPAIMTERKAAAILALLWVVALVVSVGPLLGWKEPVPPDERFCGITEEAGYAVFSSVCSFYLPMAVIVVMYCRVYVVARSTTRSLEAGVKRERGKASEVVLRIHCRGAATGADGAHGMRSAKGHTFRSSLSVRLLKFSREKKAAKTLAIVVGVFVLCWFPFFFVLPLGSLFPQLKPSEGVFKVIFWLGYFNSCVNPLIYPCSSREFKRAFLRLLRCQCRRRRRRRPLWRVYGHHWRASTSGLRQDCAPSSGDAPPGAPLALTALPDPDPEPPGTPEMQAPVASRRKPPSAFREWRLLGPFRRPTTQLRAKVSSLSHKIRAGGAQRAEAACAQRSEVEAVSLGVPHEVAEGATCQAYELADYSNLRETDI
T3 sequence (P46098 24-478, species assumed): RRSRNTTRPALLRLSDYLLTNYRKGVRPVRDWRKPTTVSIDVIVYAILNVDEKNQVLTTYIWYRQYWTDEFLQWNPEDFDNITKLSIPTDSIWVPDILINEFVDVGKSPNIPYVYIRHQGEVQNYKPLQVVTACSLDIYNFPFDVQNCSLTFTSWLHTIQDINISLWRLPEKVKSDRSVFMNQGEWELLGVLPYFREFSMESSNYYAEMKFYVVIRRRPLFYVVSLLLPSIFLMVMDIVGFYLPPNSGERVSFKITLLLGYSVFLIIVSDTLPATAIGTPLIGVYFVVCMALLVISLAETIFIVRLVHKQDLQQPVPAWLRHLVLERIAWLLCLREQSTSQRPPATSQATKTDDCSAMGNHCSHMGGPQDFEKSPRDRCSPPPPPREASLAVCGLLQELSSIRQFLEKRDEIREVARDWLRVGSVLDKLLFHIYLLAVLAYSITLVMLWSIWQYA

Clc1nnc2ccc(Oc3ccccc3-c3ccccc3)nn12 [STL1267]
Ki [1]: > 10 µM
Ki [2]: > 10 µM
Ki [3]: > 10 µM
Ki [4]: > 10 µM
Ki [5]: > 10 µM
Ki [6]: > 10 µM
Ki [7]: > 10 µM
Ki [8]: > 10 µM
Ki [9]: > 10 µM
Ki [10]: > 10 µM
Ki [11]: > 10 µM
Ki [12]: > 10 µM
Ki [13]: > 10 µM
Ki [14]: > 10 µM
Ki [15]: > 10 µM
Ki [16]: > 10 µM
Ki [17]: > 10 µM
Ki [18]: > 10 µM
Ki [19]: > 10 µM
Ki [20]: > 10 µM
Ki [21]: > 10 µM
Ki [22]: > 10 µM
Ki [23]: > 10 µM
Ki [24]: > 10 µM
Ki [25]: > 10 µM
Ki [26]: > 10 µM
Ki [27]: > 10 µM
Ki [28]: > 10 µM
Ki [29]: > 10 µM
Ki [30]: > 10 µM
Ki [31]: > 10 µM
Ki [32]: > 10 µM
cell viability (Fig 2a source data) ([33]; HepG2, 1uM): 100.259 and 103.289 and 114.098 and 100.562 and 101.976 and 107.785 and 108.29 and 110.916
cell viability (Fig 2a source data) ([33]; HepG2, 2uM): 94.905 and 99.6528 and 117.735 and 107.532 and 113.391 and 106.219 and 106.421 and 103.794
cell viability (Fig 2a source data) ([33]; HepG2, 5uM): 93.8443 and 82.581 and 107.936 and 102.38 and 83.3891 and 98.2385 and 86.8237 and 96.4202
cell viability (Fig 2a source data) ([33]; HepG2, 10uM): 88.9955 and 75.7624 and 90.8643 and 100.208 and 77.7322 and 91.3189 and 89.0965 and 88.0359
cell viability (Fig 2a source data) ([33]; HepG2, 20uM): 83.6922 and 74.4997 and 94.7535 and 87.2782 and 90.0057 and 93.8948 and 95.4101 and 87.8338
effect on cell viability ([33]; HepG2 cells, up to the maximum dose examined (20 μM)): no adverse effects on cell viability
potency [34]: 0.1 to 0.3 µM
